For this assay, the target named is fluorescein labeled GRE2 sequence dsDNA (F-GRE2). As to the kind of experiment: Total fluorescence quenching (energy transfer) of fluorescein labeled DNA. The class given is binding. The protocol:
Fluorescence Measurements. Steady state fluorescence anisotropy measurements were carried out in 20 mM Tris (pH 7.9), 30 mM NaCl, 20 mM KCl, 1 mM MgCl2, and 5% glycerol. […] DNA samples used were either the non-labeled sequences shown in FIG. 2 or a fluorescein labeled duplex with a sequence matching GRE2 (FIG. 2).
For fluorescein labeled DNA measurements, the excitation wavelength was 491 nm and the emission was recorded at 521 nm with a 1.0 nm slit width. Titrations were performed holding the concentration of fluorescein-labeled DNA constant and increasing the concentration of TO, ZF or TO-ZF as indicated. To correct for the small amount of background fluorescence from TO in these measurements, control experiments were performed in parallel using DNA that was not fluorescein labeled, but was otherwise identical to the labeled DNA fragments. The thiazole orange fluorescence intensity measured in the control experiments was subtracted from the total fluorescence intensity for each data point. Under the excitation conditions of these measurements, the contribution to fluorescence by TO at 521 nm was less than 5% of the maximum fluorescence signal observed in the experiment. Even at the point in the titration where the maximum quenching of fluorescein fluorescence was observed (the point of lowest total fluorescence in the measurement), less than half of the fluorescence was due to TO, and this could accurately be removed by subtraction of the control value. Each point is an average of 60 measurements, and each titration was performed independently three times.
Total fluorescence data were collected in parallel to the anisotropy measurements and were calculated from raw data as the fluorescence intensity in the vertical plane plus two times the fluorescence intensity of the horizontal plane, (TF=Ivv+2Ivh). These values were used to determine the percent of the maximum fluorescence for each point along the titration and fit to equation 2. [formula] […]
Fluorescence changes upon binding of TO, ZF and TO-ZF to GRE containing duplex DNA. Equilibrium binding of the non-labeled zinc finger (ZF), unconjugated thiazole orange (TO) and thiazole orange-zinc finger conjugate (TO-ZF) to fluorescein labeled GRE2 sequence dsDNA was measured by both fluorescence anisotropy and total fluorescence. […] For fluorescein fluorescence, excitation was at 491 nm and emission was detected at 521 nm. […] Changes in the steady-state anisotropy of the fluorescein fluorescence from the labeled GRE sequence containing DNA (F-GRE2) can arise from two sources. […] By comparison, the amino acid zinc finger Xfin-31 was determined to have a dissociation constant of approximately 1 μM, M. S. Lee, et al., FEBS 279:289-294 (1991), whereas, the 66 amino acid zinc finger from GATA-1 has a dissociation constant of 10 nM. […]

As to “TO-ZF: 29 amino acid single zinc finger from residues 438-465 of glucocorticoid receptor, thiazole orange coupled to a lysine ε-amine”, for the setting “1 nM F-GRE2, read-out: dissociation constant from quenching curve, two-state binding model”, the Kd was determined as 0.014 µM. Moreover, the “change in total fluorescein fluorescence over the titration” value (excitation 491 nm, emission 521 nm) is given as “large decreases in steady state fluorescence”.

These data come from patent US6348317B1, “Fluorescent and DNA cleavage properties of peptide/dye conjugates” (The Arizona Board of Regents, priority 1999, dated 2002).
